Holding throughout (format): cell-based
One assay deals with Ba/F3 EGFR-Del19-C797S (Homo sapiens, UniProt P00533, C797S, cells depend on it, form not given). The assay can be described thus: Cell proliferation study (CellTiter-Glo), Ba/F3 EGFR-Del19-C797S. The settings on record: 72 hrs, CTG, read-out: Del19/C797S IC50. As to the method:
(§1) • DMEM medium (Gibco, 11965118) • RPMI1640 medium (Gibco, 11875119) • Fetal bovine serum (FBS) (GBICO, Cat #10099-141) • CellTiter-Glo® luminescent cell viability assay kit (Promega, Cat #G7572) • Black transparent flat-bottom 96-well plate (Corning®, Cat #3603)
(§2) • SpectraMax multi-label microplate reader MD, 2104-0010A; • Carbon dioxide incubator, Thermo Scientific 3100 series; • Biological safety cabinet, Thermo Scientific, 1300 series model A2; • Inverted microscope, Olympus, CKX41SF; • Siemens refrigerator, KK25E76TI.
(§3) • (1) Cells in the logarithmic growth phase were harvested and counted using a […]. The cell viability was determined by the trypan blue dye exclusion method to ensure cell viability above 90%. • (2) The cell concentration was adjusted to reach a desired final density; 90 μL of cell suspension was added to a 96-well plate. • (3) The cells were incubated overnight in the 96-well plate at 37° C., 5% CO2 and with 95% humidity.
(§4) • (1) 10 μL of PBS was added to each well of the TO plate containing the cells, • (2) The CTG reagent was thawed and the cell plate was equilibrated to room temperature for 30 min. • (3) An equal volume of CTG solution was added to each well. • (4) The cells were lysed by shaking on an orbital shaker for 5 min. • (5) The cell plate was left to stand at room temperature for 20 min to stabilize the fluorescence signal. • (6) The fluorescence signal values of TO were read.
(§5) • (1) According to the compound information table, a corresponding volume of DMSO was added to the corresponding compound powder to prepare a 10 mM stock solution. • (2) A 1000-fold, 3.16-fold-diluted compound solution was prepared. • (3) The 1000× diluted compound solution was diluted 100-fold with PBS to prepare a 10-fold compound solution with a maximum concentration of 10 μM, including 9 concentrations, with 3.16-fold dilution, and 10 μL of the medicament solution was added to each well of the 96-well plate to seed the cells. Triplicate wells were set for each compound concentration, with a final concentration of DMSO being 0.1%. • (4) The cells were placed in the 96-well plate containing the medicament at 37° C., 5% CO2 and with 95% humidity, and cultured for 72 hrs before CTG analysis,
(§6) • (1) The CTG reagent was thawed and the cell plate was equilibrated to room temperature for 30 min. • (2) An equal volume of CTG solution was added to each well. • (3) The cells were lysed by shaking on an orbital shaker for 5 min. • (4) The cell plate was left to stand at room temperature for 20 min to stabilize the fluorescence signal. • (5) The fluorescence values were read.
(§7) Data were analyzed using GraphPad Prism 7.0 software and fitted data were regressed using non-linear S-curves to obtain dose-response curves from which IC50 values (in nM) were calculated.

A further assay deals with Ba/F3 EGFR-Del19 (Homo sapiens, UniProt P00533, cells depend on it, form not given). The assay can be described thus: Cell proliferation study (CellTiter-Glo), Ba/F3 EGFR-Del19. The settings on record: 72 hrs, CTG, read-out: Del19 IC50. The procedure: as §1, §2, §3, §4
Chain of Ba/F3 EGFR-Del19 (P00533 with tags, fused parts or gaps DEL746-750): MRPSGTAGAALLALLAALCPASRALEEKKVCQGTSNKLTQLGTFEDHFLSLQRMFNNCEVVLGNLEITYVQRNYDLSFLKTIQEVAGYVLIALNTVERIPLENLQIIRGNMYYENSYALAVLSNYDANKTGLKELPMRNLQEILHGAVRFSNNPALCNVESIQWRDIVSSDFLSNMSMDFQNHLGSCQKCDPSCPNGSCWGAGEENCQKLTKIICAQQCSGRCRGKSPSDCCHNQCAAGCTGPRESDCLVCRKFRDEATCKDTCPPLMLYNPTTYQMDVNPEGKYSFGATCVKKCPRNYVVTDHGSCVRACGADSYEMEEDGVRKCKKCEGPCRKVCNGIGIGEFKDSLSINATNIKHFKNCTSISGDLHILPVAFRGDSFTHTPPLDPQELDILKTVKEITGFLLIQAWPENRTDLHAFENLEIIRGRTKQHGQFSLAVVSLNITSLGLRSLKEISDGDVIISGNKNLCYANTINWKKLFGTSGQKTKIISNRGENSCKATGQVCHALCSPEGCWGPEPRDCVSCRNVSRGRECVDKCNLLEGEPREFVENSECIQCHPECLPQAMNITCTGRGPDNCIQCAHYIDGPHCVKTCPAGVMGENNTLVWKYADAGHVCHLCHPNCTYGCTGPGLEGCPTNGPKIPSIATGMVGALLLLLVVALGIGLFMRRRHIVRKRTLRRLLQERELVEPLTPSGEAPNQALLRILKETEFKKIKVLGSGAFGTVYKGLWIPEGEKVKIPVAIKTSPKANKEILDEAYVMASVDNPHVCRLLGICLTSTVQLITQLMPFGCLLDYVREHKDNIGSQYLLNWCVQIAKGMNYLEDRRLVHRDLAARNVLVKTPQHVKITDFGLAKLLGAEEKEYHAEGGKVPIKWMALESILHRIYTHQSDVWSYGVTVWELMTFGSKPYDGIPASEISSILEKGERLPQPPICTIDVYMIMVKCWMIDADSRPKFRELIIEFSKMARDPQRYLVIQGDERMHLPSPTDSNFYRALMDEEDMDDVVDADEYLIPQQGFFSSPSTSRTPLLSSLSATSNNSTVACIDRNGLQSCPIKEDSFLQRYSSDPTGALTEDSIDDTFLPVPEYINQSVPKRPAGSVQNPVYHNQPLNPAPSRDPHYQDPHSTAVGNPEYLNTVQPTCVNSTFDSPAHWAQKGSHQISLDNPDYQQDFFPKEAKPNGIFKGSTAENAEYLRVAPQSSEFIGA
(§8) • (1) According to the compound information table, a corresponding volume of DMSO was added to the corresponding compound powder to prepare a 10 mM stock solution. • (2) A 1000-fold, 3.16-fold-diluted compound solution was prepared. • (3) The 1000× diluted compound solution was diluted 100-fold with PBS to prepare a 10-fold compound solution with a maximum concentration of 10 μM, including 9 concentrations, with 3.16-fold dilution, and 10 μL of the medicament solution was added to each well of the 96-well plate to seed the cells. […]
as §6, §7

A further assay relates to A431. The assay can be described thus: Cell proliferation study (CellTiter-Glo), A431 WT. The settings on record: Homo sapiens, A-431; A431 cells, 72 hrs, CTG. The procedure:
as §1, §2, §3, §4, §5, §6, §7

Another assay concerns the target Ba/F3 EGFR-L858R (Homo sapiens, UniProt P00533, L858R, cells depend on it). The assay can be described thus: Cell proliferation study (CellTiter-Glo), Ba/F3 EGFR-L858R. The settings on record: 72 hrs, CTG, read-out: L858R IC50. The procedure: as §1, §2, §3, §4, §8, §6, §7
The next assay deals with Ba/F3 EGFR-L858R-C797S (Homo sapiens, UniProt P00533, C797S/L858R, cells depend on it). The assay can be described thus: Cell proliferation study (CellTiter-Glo), Ba/F3 EGFR-L858R-C797S. The settings on record: 72 hrs, CTG, read-out: L858R/C797S IC50. The procedure: as §1, §2, §3, §4, §5, §6, §7
Chain of Ba/F3 EGFR-L858R-C797S (P00533 whole entry C797S/L858R): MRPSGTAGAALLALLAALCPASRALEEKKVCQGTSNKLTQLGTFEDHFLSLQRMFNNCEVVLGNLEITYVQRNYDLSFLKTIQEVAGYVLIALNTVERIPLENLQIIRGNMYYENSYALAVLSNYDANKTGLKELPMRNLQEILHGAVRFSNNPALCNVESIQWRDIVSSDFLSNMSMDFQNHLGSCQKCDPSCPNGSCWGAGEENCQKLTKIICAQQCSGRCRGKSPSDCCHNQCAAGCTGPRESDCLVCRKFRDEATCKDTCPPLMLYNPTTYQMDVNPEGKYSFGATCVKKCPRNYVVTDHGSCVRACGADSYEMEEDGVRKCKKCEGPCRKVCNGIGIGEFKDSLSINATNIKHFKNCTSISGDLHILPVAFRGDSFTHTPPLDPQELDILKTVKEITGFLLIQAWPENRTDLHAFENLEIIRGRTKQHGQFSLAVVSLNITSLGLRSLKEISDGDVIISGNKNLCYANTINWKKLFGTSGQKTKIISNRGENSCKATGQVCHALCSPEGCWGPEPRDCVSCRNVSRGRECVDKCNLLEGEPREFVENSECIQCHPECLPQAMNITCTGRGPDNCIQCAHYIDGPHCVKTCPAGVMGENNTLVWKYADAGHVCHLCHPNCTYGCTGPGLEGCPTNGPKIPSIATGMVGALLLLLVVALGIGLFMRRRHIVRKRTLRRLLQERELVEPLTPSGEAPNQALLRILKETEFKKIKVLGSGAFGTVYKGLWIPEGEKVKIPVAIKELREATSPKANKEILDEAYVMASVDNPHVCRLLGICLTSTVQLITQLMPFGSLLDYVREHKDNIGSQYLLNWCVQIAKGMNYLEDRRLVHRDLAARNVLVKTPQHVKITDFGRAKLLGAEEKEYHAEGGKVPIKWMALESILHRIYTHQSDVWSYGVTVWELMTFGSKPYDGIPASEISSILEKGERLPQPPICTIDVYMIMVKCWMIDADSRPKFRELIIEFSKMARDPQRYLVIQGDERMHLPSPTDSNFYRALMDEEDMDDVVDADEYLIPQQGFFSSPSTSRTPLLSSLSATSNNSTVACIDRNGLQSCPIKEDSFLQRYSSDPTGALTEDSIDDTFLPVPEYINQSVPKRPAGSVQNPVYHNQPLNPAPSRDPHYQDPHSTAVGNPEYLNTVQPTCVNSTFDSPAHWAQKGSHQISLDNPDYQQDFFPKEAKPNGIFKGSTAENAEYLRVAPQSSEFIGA

Chain of Ba/F3 EGFR-L858R (P00533 whole entry L858R): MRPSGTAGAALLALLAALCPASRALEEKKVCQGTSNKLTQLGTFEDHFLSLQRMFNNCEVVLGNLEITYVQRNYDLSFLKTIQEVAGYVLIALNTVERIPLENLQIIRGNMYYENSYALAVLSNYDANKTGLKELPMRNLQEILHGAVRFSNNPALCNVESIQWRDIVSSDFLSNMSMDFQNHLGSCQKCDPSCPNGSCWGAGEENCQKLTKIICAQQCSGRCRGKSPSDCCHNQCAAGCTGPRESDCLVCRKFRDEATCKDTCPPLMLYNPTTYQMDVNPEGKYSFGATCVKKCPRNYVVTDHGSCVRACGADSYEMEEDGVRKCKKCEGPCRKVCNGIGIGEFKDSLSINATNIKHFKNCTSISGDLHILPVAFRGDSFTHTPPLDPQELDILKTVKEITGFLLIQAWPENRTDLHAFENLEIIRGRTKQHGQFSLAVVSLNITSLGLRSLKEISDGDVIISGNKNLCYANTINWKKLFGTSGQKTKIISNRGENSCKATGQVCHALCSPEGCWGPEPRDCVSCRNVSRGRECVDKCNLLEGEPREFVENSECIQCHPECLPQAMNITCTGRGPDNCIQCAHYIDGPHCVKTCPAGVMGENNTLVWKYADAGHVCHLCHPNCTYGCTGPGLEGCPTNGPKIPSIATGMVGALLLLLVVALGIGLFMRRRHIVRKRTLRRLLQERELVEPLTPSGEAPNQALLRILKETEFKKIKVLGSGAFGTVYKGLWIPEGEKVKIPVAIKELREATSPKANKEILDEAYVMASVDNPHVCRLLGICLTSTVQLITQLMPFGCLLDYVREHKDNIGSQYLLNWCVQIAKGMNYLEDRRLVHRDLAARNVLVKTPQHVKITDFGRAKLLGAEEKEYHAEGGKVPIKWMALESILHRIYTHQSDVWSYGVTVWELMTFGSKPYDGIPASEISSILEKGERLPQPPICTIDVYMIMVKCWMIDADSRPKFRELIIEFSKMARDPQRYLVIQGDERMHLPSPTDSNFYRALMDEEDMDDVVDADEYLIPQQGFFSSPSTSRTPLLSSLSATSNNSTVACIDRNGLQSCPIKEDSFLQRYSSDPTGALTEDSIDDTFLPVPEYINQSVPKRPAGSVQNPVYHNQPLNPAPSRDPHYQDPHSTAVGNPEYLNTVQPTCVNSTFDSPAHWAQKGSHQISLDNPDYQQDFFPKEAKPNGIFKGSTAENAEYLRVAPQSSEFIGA
Chain of Ba/F3 EGFR-Del19-C797S (P00533 with tags, fused parts or gaps DEL746-750/C797S, form open): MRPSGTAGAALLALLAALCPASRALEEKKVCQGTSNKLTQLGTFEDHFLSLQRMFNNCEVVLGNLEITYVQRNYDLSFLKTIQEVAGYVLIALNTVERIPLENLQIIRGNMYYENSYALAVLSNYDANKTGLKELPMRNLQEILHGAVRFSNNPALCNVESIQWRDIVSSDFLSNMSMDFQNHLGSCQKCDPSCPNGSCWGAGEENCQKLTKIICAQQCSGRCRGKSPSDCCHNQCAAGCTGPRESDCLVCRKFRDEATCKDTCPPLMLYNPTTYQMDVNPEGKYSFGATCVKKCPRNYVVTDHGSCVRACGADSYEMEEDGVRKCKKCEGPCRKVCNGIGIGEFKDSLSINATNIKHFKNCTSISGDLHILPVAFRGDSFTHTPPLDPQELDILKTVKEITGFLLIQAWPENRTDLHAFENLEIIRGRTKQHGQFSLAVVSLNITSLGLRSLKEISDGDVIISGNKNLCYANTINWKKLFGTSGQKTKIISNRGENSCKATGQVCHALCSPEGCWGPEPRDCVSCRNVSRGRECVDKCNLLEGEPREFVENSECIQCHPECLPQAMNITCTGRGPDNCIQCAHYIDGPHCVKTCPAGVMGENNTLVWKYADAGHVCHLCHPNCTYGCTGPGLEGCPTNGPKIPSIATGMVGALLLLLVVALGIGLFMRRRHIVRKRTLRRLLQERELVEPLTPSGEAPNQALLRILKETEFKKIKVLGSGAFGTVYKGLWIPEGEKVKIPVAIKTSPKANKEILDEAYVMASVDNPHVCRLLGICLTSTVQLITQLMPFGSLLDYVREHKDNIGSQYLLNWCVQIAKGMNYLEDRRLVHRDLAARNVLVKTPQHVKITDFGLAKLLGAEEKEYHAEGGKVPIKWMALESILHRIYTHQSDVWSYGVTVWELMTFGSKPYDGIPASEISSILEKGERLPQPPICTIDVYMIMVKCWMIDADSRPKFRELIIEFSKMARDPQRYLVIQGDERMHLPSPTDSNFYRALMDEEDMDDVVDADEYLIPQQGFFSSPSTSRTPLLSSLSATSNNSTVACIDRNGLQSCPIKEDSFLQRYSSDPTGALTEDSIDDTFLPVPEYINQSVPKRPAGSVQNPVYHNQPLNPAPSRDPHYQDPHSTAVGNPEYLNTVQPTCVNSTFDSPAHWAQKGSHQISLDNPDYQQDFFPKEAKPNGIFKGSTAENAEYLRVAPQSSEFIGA

Regarding `COc1cc(N2CCC(N3CCN(C)CC3)CC2)c(C)cc1Nc1cc(Nc2ccnc(-c3ccccc3F)c2)ncn1` [Example 1, N^4-(2-(2-fluorophenyl)pyridin-4-yl)-N^6-(2-methoxy-5-methyl-4-(4-(4-methylpiperazin-1-yl)piperidin-1-yl)phenyl)pyrimidine-4,6-diamine], the GI50 on Ba/F3 EGFR-Del19-C797S was found to be 3.7 nM; on Ba/F3 EGFR-Del19, 3.4 nM; at Ba/F3 EGFR-L858R it was 3 nM; on Ba/F3 EGFR-L858R-C797S it was 9.1 nM. Half-maximal inhibition in the assay on A431 (IC50) was put at 182 nM.
For `COc1cc(N2CCC(N3CCOCC3)CC2)c(C)cc1Nc1cc(Nc2ccnc(-c3ccccc3F)c2)ncn1` [Example 2, N^4-(2-(2-fluorophenyl)pyridin-4-yl)-N^6-(2-methoxy-5-methyl-4-(4-morpholinopiperidin-1-yl)phenyl)pyrimidine-4,6-diamine] the same measures were 17.4 nM, 2.8 nM, 2.9 nM, 10.4 nM and 554 nM.
In the assay on A431, `CCOc1cc(N2CCC(N3CCN(C)CC3)CC2)c(C)cc1Nc1cc(Nc2ccnc(-c3ccccc3F)c2)ncn1` [Example 3, N^4-(2-ethoxy-5-methyl-4-(4-(4-methylpiperazin-1-yl)piperidin-1-yl)phenyl)-N^6-(2-(2-fluorophenyl)pyridin-4-yl)pyrimidine-4,6-diamine] showed an IC50 of 217 nM. The GI50 at Ba/F3 EGFR-L858R-C797S was determined as 23.3 nM.
For `Cc1cc(Nc2cc(Nc3ccnc(-c4ccccc4F)c3)ncn2)c(OC(F)F)cc1N1CCC(N2CCN(C)CC2)CC1` [Example 4, N^4-(2-(difluoromethoxy)-5-methyl-4-(4-(4-methylpiperazin-1-yl)piperidin-1-yl)phenyl)-N^6-(2-(2-fluorophenyl)pyridin-4-yl)pyrimidine-4,6-diamine], the GI50 at Ba/F3 EGFR-Del19-C797S came out at 12.7 nM; on Ba/F3 EGFR-Del19 it was 6.6 nM; at Ba/F3 EGFR-L858R, 6.2 nM; at Ba/F3 EGFR-L858R-C797S, 12.1 nM. In the assay with A431, this compound had a half-maximal inhibitory concentration (IC50) of 237 nM.
For the compound `Cc1cc(Nc2cc(Nc3ccnc(-c4ccccc4F)c3)ncn2)c(OCC(F)(F)F)cc1N1CCC(N2CCN(C)CC2)CC1` [Example 5, N^4-(2-(2-fluorophenyl)pyridin-4-yl)-N^6-(5-methyl-4-(4-(4-methylpiperazin-1-yl)piperidin-1-yl)-2-(2,2,2-trifluoroethoxy)phenyl)pyrimidine-4,6-diamine], the GI50 on Ba/F3 EGFR-L858R-C797S amounted to 53.2 nM.
`CCc1cc(Nc2cc(Nc3ccnc(-c4ccccc4F)c3)ncn2)c(OC)cc1N1CCC(N2CCN(C)CC2)CC1` [Example 6, N^4-(5-ethyl-2-methoxy-4-(4-(4-methylpiperazin-1-yl)piperidin-1-yl)phenyl)-N^6-(2-(2-fluorophenyl)pyridin-4-yl)pyrimidine-4,6-diamine]: the GI50 on Ba/F3 EGFR-Del19-C797S stood at 23.7 nM; on Ba/F3 EGFR-L858R-C797S, 32.1 nM. In the assay on A431, the IC50 is 1080 nM.
The compound `COc1cc(N2CCC(N3CCN(C)CC3)CC2)c(C(C)C)cc1Nc1cc(Nc2ccnc(-c3ccccc3F)c2)ncn1` [Example 7, N^4-(2-(2-fluorophenyl)pyridin-4-yl)-N^6-(5-isopropyl-2-methoxy-4-(4-(4-methylpiperazin-1-yl)piperidin-1-yl)phenyl)pyrimidine-4,6-diamine] gave an IC50 with A431 of 2500 nM. The GI50 at Ba/F3 EGFR-L858R-C797S came to 69.1 nM.
In the case of `COc1cc(N2CCC(N3CCN(C)CC3)CC2)c(C2CC2)cc1Nc1cc(Nc2ccnc(-c3ccccc3F)c2)ncn1` [Example 8, N^4-(5-cyclopropyl-2-methoxy-4-(4-(4-methylpiperazin-1-yl)piperidin-1-yl)phenyl)-N^6-(2-(2-fluorophenyl)pyridin-4-yl)pyrimidine-4,6-diamine], the GI50 turned out to be 34.6 nM on Ba/F3 EGFR-Del19-C797S and 40 nM on Ba/F3 EGFR-L858R-C797S. For the same compound, in the assay on A431, inhibition was half-maximal at 1660 nM (IC50).
In the assay with A431, `COc1cc(N2CCC(N3CCN(C)CC3)CC2)c(-c2cnn(C)c2)cc1Nc1cc(Nc2ccnc(-c3ccccc3F)c2)ncn1` [Example 9, N^4-(2-(2-fluorophenyl)pyridin-4-yl)-N^6-(2-methoxy-5-(1-methyl-1H-pyrazol-4-yl)-4-(4-(4-methylpiperazin-1-yl)piperidin-1-yl)phenyl)pyrimidine-4,6-diamine] returned an IC50 of 1520 nM. At Ba/F3 EGFR-L858R-C797S, the GI50 stood at 68.6 nM.
Consider `COc1cc(N2CCOCC2)c(-c2cnn(C)c2)cc1Nc1cc(Nc2ccnc(-c3ccccc3F)c2)ncn1` [Example 10, N^4-(2-(2-fluorophenyl)pyridin-4-yl)-N^6-(2-methoxy-5-(1-methyl-1H-pyrazol-4-yl)-4-morpholinophenyl)pyrimidine-4,6-diamine], for which the GI50 at Ba/F3 EGFR-L858R-C797S was 117 nM.
In the assay with A431, `COc1cc(N2CCN(C)CC2)c(-c2cnn(C)c2)cc1Nc1cc(Nc2ccnc(-c3ccccc3F)c2)ncn1` [Example 11, N^4-(2-(2-fluorophenyl)pyridin-4-yl)-N^6-(2-methoxy-5-(1-methyl-1H-pyrazol-4-yl)-4-(4-methylpiperazin-1-yl)phenyl)pyrimidine-4,6-diamine] gave an IC50 of 306 nM. Also, the GI50 at Ba/F3 EGFR-L858R-C797S was 72.6 nM.
For `COc1cc(N2CCC(N3CCN(C)CC3)CC2)c(C)cc1Nc1cc(Nc2cncc(-c3ccccc3F)c2)ncn1` [Example 12, N^4-(5-(2-fluorophenyl)pyridin-3-yl)-N^6-(2-methoxy-5-methyl-4-(4-(4-methylpiperazin-1-yl)piperidin-1-yl)phenyl)pyrimidine-4,6-diamine] the same measures were 2340 nM and 77.4 nM.
As to `COc1cc(N2CCC(N3CCN(C)CC3)CC2)c(F)cc1Nc1cc(Nc2ccnc(-c3ccccc3F)c2)ncn1` [Example 13, N^4-(5-fluoro-2-methoxy-4-(4-(4-methylpiperazin-1-yl)piperidin-1-yl)phenyl)-N^6-(2-(2-fluorophenyl)pyridin-4-yl)pyrimidine-4,6-diamine], the GI50 came out at 16.9 nM at Ba/F3 EGFR-Del19-C797S and 22.8 nM at Ba/F3 EGFR-L858R-C797S. The midpoint of inhibition in the assay on A431, the IC50, lay at 182 nM.
For `COc1cc(N2CCC(N3CCN(C)CC3)CC2)c(Cl)cc1Nc1cc(Nc2ccnc(-c3ccccc3F)c2)ncn1` [Example 14, N^4-(5-chloro-2-methoxy-4-(4-(4-methylpiperazin-1-yl)piperidin-1-yl)phenyl)-N^6-(2-(2-fluorophenyl)pyridin-4-yl)pyrimidine-4,6-diamine], in that order: 21.9 nM, 21.4 nM and 228 nM.
Consider `COc1cc(N2CCC(N3CCN(C)CC3)CC2)c(Br)cc1Nc1cc(Nc2ccnc(-c3ccccc3F)c2)ncn1` [Example 15, N^4-(5-bromo-2-methoxy-4-(4-(4-methylpiperazin-1-yl)piperidin-1-yl)phenyl)-N-(2-(2-fluorophenyl)pyridin-4-yl)pyrimidine-4,6-diamine], for which half-maximal inhibition in the assay with A431 (IC50) required 181 nM. For the same compound, the GI50 at Ba/F3 EGFR-L858R-C797S turned out to be 18.3 nM.
For `CN1CCN(C2CCN(c3cc(Cl)c(Nc4cc(Nc5ccnc(-c6ccccc6F)c5)ncn4)cc3Cl)CC2)CC1` [Example 17, N^4-(2,5-dichloro-4-(4-(4-methylpiperazin-1-yl)piperidin-1-yl)phenyl)-N^6-(2-(2-fluorophenyl)pyridin-4-yl)pyrimidine-4,6-diamine], the GI50 was found to be 85 nM on Ba/F3 EGFR-Del19-C797S and 87.8 nM on Ba/F3 EGFR-L858R-C797S. The same compound gave an IC50 in the assay with A431 of 1060 nM.
For `Cc1cc(Nc2cc(Nc3ccnc(-c4ccccc4F)c3)ncn2)c(Cl)cc1N1CCC(N2CCN(C)CC2)CC1` [Example 18, N^4-(2-chloro-5-methyl-4-(4-(4-methylpiperazin-1-yl)piperidin-1-yl)phenyl)-N^6-(2-(2-fluorophenyl)pyridin-4-yl)pyrimidine-4-diamine] the same measures were 25.1 nM, 21.7 nM and 984 nM.
